Reference: US6126918A, “Screening assays to identify therapeutic agents for amyloidosis” (Imperial College Innovations Limited, priority 1993, dated 2000)
Like-named read-outs stand apart in the source and are kept apart here. One block for each molecule: values may come before it.

Legend:
AA amyloid fibrils = experiment: Trypsin or chymotrypsin digestion of AA amyloid fibrils, SDS-PAGE quantification of AA protein band; format: biochemical, human; details: 6 hours at 37° C.
Protocol: (b) AA amyloid fibrils obtained ex vivo were incubated for 6 hours at 37° C. with trypsin or chymotrypsin at a substrate:enzyme ratio of 10:1 in the presence or absence of SAP and with or without MOβDG, according to the general protocol given above. The incubation mixtures were then analysed by Coomassie blue stained SDS-PAGE with quantification of the AA protein band. Intensity of this band after incubation without trypsin was taken as 100%.

SAP [1] = target: T1, SAP (Homo sapiens, UniProt P02743); experiment: Binding of DNA by SAP; details: unpublished observations
T1 construct: homopentamer, can form decamer; calcium-dependent ligand site
From the text: SAP also binds polyanions such as heparan sulphate, dermatan sulphate and DNA [4] in the presence of calcium. […] There are several basic regions in SAP, for example Arg120, Arg77, His78, Lys79 and Arg57, which are on the same surface as the calcium and PE binding sites. It seems more likely that the phosphate backbone of DNA and the sulphated polysaccharides bind both at the calciums and at the basic sites, possibly on more than one subunit simultaneously. These extensive interactions probably account for the ability of SAP to displace from DNA the H1-type histones in chromatin [5]. The sequence differences in the basic regions and in the calcium binding region could explain the variable affinity for DNA shown by different pentraxins. Human CRP, for instance, only binds DNA at low, non-physiological ionic strength. […] Similar effects are observed for SAP binding to immobilised PE [unpublished observations]. As we can find no evidence for a second binding site for PE or MOβDG in the present experimental conditions, these effects must be mediated through inter-subunit interactions.

SAP [2] = target: T1, SAP; details: neutral solutions in the presence of calcium ions; reference [44]; cited from earlier work
[3] = tested on: Alzheimer's disease β-protein fibrils; experiment: Pronase digestion of Alzheimer's disease β-protein fibrils, SDS-PAGE; format: biochemical; details: for Digestion of β-protein: SAP 10 μg/ml, pronase 1 μg/ml, 1 hour at 37° C.
Protocol: Alzheimer's disease β-protein, prepared as a synthetic peptide containing residues 1-40 was obtained from California Peptide Research, and was dissolved in pure water at 4 mg/ml, that is 1 mM. Some was kept at 4° C. ("fresh") and some was aged by incubation at 37° C. for 7 days. It is known that fibrils form very slowly in the cold but that "ageing" is associated with marked amyloid fibril formation, and this was confirmed in the present case by Congo red staining and by direct electron microscopy.
(a) β-protein solutions obtained as described above were diluted to 0.2 mg/ml in TC immediately before use. Highly purified human SAP in solution in 138 mM NaCl, 10 mM Tris, pH 8.0 (TN) was diluted in TN to 0.1 mg/ml, 0.5 mg/ml and 2.5 mg/ml Pronase from S. griseus was obtained from Boehringer Mannheim and was freshly prepared at 0.04 and 0.004 mg/ml in TC just before use.
Aliquots, 50 μl, of aged or fresh β-protein were mixed with 20 μl volumes of TN alone or SAP at the different concentrations shown in FIG. 5 and with 5 μl of 10 mM CaCl2, and then incubated with shaking at 37° C. for 1 hour. TC alone or pronase in TC at 0.04 or 0.004 mg/ml were added in a volume of 25 μl and incubation continued for a further 1 hour at 37° C. Digestion was then stopped by addition of an equal volume of reducing SDS-PAGE sample buffer (20 mM Tris pH 8.0, 2 mM EDTA, 5% w/v SDS, 10% w/v 2-mercaptoethanol, 0.05% w/v bromophenol blue, 20% w/v glycerol) and boiling for 10 minutes. These samples were finally analysed in reduced SDS homogeneous 15% PAGE, stained with Brilliant blue R350. The proportion of the β-protein present in each track was estimated by scanning densitometry with reference to the no pronase control which was taken as 100%. The proportion digested was calculated by subtraction and plotted against the SAP concentration.
(d) Abrogation of protection by MOβDG: β-protein fibrils at 100 μg/ml were incubated for 1 hour at 37° C. with pronase at 1 μg/ml, in the presence or absence of SAP and with or without different concentrations of MOβDG. The extent of digestion of the β-protein was then estimated by SDS-PAGE analysis.

[4] = tested on: amyloid fibrils of AA, AL and apoAI type; experiment: Proteinase digestion of ex vivo amyloid fibrils (AA, AL, apoAI) in vitro; format: biochemical, human; details: for Effect on fibril digestion by proteinases: protein added to incubation mixtures, 37° C.
[5] = target: T2, SAP binding to AA type amyloid fibrils (Homo sapiens, UniProt P02743); experiment: Inhibition of SAP binding to amyloid fibrils (125I-SAP); details: concentrations above about 2 mM in the final incubation mixture
T2 construct: isolated at greater than 99% purity from pooled human ascites and pleural effusion fluids; from tissue; host or cells: SAP from pooled human ascites and pleural effusion fluids; fibrils from patients' organs such as spleen
Protocol: Amyloid fibrils are isolated from the organs, such as the spleen, obtained post mortem from patients with amyloidosis of AA or AL type, using the water extraction method of Pras et al. This method is modified in that the initial saline homogenizations are conducted using Tris buffered saline containing 10 mM EDTA to ensure complete dissociation of all endogenous SAP [56]. The fibril-rich water extract is mixed with Tris buffered saline containing calcium chloride to bring the final salt concentration to 138 m NaCl, 10 mM Tris, 2 mM CaCl2, pH 8.0, and this is then centrifuged at 1500 g for 5 minutes to sediment the fibrils. These are then resuspended in Tris saline calcium buffer, pH 8.0, at the same concentration as above (TC buffer), so as to provide a suitable suspension, for example, A280 =0.255, A320 =0.132, and this is stored at 4° C. […] Agents to be tested are dissolved at a concentration of about 10 mM in TC, or in 1:10 DMSO in water or TC. If they are active in inhibiting SAP binding they are tested at a range of lower concentrations to determine the minimal inhibitory dose.
For the assay itself 10 μl of labelled SAP is mixed with 50 μl of amyloid fibril suspension and 40 μl of the test substance and incubated, with mixing, for 60 minutes at room temperature. […] The fibrils are washed with TC containing 1% w/v BSA and the radioactive SAP bound is measured. […]

SAP [6] = target: T1, SAP; experiment: Calcium-dependent aggregation of SAP in neutral solution; details: neutral solutions in the presence of calcium ions; unpublished observations
From the text: SAP rapidly aggregates in neutral solutions in the presence of calcium ions presumably due to intermolecular interactions involving the surface of the decamer with the exposed calcium binding site. […] Similarly they compete for the calcium site with Glu167 which is an important lattice contact in the pentamer crystals.

T1 sequence (P02743 20-223): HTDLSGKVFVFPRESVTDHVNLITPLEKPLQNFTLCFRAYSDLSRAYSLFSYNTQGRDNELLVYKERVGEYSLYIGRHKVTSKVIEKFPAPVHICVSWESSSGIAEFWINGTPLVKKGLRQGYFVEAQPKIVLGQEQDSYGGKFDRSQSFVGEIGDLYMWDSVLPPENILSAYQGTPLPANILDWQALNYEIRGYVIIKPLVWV
T2 sequence (P02743 20-223): as above

Digestion of β-protein ([3]; MOβDG 1.3 mM): 75%
Digestion of β-protein ([3]; MOβDG 6.7 mM): 85%
Digestion of β-protein ([3]; MOβDG 33.3 mM): 90%
Protection by SAP in the presence of MOβDG ([3]; β-protein amyloid fibrils with SAP): completely abrogated
Protective effect of SAP when MOβDG was included ([4]; MOβDG included in the incubation mixtures with SAP): completely abrogated
Effect on SAP binding to amyloid fibrils [5]: reduces binding to background levels
Molecule: CO[C@@H]1O[C@@H]2CO[C@@](C)(C(=O)O)O[C@@H]2[C@H](O)[C@H]1O [MOβDG, methyl 4,6-O-(1-carboxyethylidene)-β-D-galactopyranoside]
% AA protein remaining (AA amyloid fibrils; Chymotrypsin, SAP 50 μg/ml plus MOβDG 1 mM): 10%
% AA protein remaining (AA amyloid fibrils; Trypsin, SAP 50 μg/ml plus MOβDG 1 mM): 5%
Effect on binding of DNA by SAP (SAP [1]): enhance the binding of DNA by SAP and compete with the interaction at high concentration
Inhibition of SAP aggregation (SAP [2]): can be inhibited

Molecule: NCCOP(=O)(O)O [PE, phosphoethanolamine]
Inhibition of SAP aggregation (SAP [6]): can be inhibited
Effect on binding of DNA by SAP (SAP [1]): enhance the binding of DNA by SAP and compete with the interaction at high concentration

Molecule: CRP: C-reactive protein, control protein that does not bind to amyloid fibrils
Effect on fibril digestion by proteinases [4]: had no effect on their digestion

Digestion of β-protein ([3]; MOβDG 0 mM): 60%
Molecule: SAP: Serum amyloid P component, a normal human plasma protein; highly purified human SAP
% AA protein remaining (AA amyloid fibrils; Chymotrypsin, SAP 10 μg/ml, no MOβDG): 20%
% AA protein remaining (AA amyloid fibrils; Chymotrypsin, SAP 50 μg/ml, no MOβDG): 60%
% AA protein remaining (AA amyloid fibrils; Trypsin, SAP 10 μg/ml, no MOβDG): 20%
% AA protein remaining (AA amyloid fibrils; Trypsin, SAP 50 μg/ml, no MOβDG): 50%
Protection of β-protein amyloid fibrils from proteolysis ([3]; fibrils produced in vitro from synthetic β-protein): protected the β-protein amyloid fibrils from proteolysis
Effect on fibril digestion by proteinases [4]: greatly reduced fibril digestion
